Measurements as given in the supplement of paper PMC10307832.

Assays:
Experiment in all cases: relative viability (nuclei count vs DMSO), 5 days (fraction); higher = more cells survive
Salubrinal + Tozasertib = compound: O=C(/C=C/c1ccccc1)NC(NC(=S)Nc1cccc2cccnc12)C(Cl)(Cl)Cl [Salubrinal] + Cc1cc(Nc2cc(N3CCN(C)CC3)nc(Sc3ccc(NC(=O)C4CC4)cc3)n2)n[nH]1 [Tozasertib] (partner 0.1 µM)
Summary of the method: (§1)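 For relative viability, nuclei counts in treated wells were divided by those in vehicle wells. Lung cancer cell lines had been pin-tool dosed in 1536-well plates the day after seeding and cultured for 5 days, then fixed and stained in one step (final 0.05% Triton X-100, 1% formaldehyde, 1 ug/ml Hoechst) and imaged at 4×. Doses were one drug alone or a fixed anchor-drug dose plus five library-drug doses (not always all listed) in √10 steps, and values are duplicate-plate medians.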

[1] = compound: Cc1ccc2nc(NCCN)c3ncc(C)n3c2c1 + O=C(CCCCCCC(=O)Nc1ccccc1)NO [Vorinostat] (partner 1 µM)
Summary of the method: as §1

Salubrinal + Olaparib = compound: O=C(/C=C/c1ccccc1)NC(NC(=S)Nc1cccc2cccnc12)C(Cl)(Cl)Cl [Salubrinal] + O=C(c1cc(Cc2n[nH]c(=O)c3ccccc23)ccc1F)N1CCN(C(=O)C2CC2)CC1 [Olaparib] (partner 8 µM)
Summary of the method: as §1

Salubrinal + Luminespib = compound: O=C(/C=C/c1ccccc1)NC(NC(=S)Nc1cccc2cccnc12)C(Cl)(Cl)Cl [Salubrinal] + CCNC(=O)c1noc(-c2cc(C(C)C)c(O)cc2O)c1-c1ccc(CN2CCOCC2)cc1 [Luminespib] (partner 0.01 µM)
Summary of the method: as §1

Row | Cell Line | relative viability (Salubrinal + Tozasertib; first compound 0.08 µM) | relative viability (Salubrinal + Tozasertib; first compound 0.253 µM) | relative viability (Salubrinal + Tozasertib; first compound 0.8 µM) | relative viability (Salubrinal + Tozasertib; first compound 2.53 µM) | relative viability (Salubrinal + Tozasertib; first compound 8 µM) | relative viability ([1]; first compound 0.04 µM) | relative viability ([1]; first compound 0.1265 µM) | relative viability ([1]; first compound 0.4 µM) | relative viability ([1]; first compound 1.265 µM) | relative viability ([1]; first compound 4 µM) | relative viability (Salubrinal + Olaparib; first compound 0.08 µM) | relative viability (Salubrinal + Olaparib; first compound 0.253 µM) | relative viability (Salubrinal + Olaparib; first compound 0.8 µM) | relative viability (Salubrinal + Olaparib; first compound 2.53 µM) | relative viability (Salubrinal + Olaparib; first compound 8 µM) | relative viability (Salubrinal + Luminespib; first compound 0.08 µM) | relative viability (Salubrinal + Luminespib; first compound 0.253 µM) | relative viability (Salubrinal + Luminespib; first compound 0.8 µM) | relative viability (Salubrinal + Luminespib; first compound 2.53 µM) | relative viability (Salubrinal + Luminespib; first compound 8 µM)
1 | SW 1573 | 0.176 | 0.172 | 0.155 | 0.194 | 0.151 | 0.85 | 0.903 | 0.669 | 0.865 | 0.65 | 0.607 | 0.488 | 0.542 | 0.43 | 0.522 | 0.211 | 0.26 | 0.206 | 0.238 | 0.169
2 | NCI-H661 | 0.367 | 0.36 | 0.373 | 0.356 | 0.37 | 0.752 | 0.778 | 0.748 | 0.785 | 0.834 | 0.753 | 0.538 | 0.76 | 0.73 | 0.758 | 0.912 | 0.763 | 0.919 | 0.905 | 0.941
3 | PC-3 [JPC-3] | 1.12 | 0.649 | 0.857 | 0.896 | 0.831 | 0.825 | 0.752 | 0.709 | 0.774 | 0.734 | 1.16 | 0.567 | 1.23 | 1.1 | 1.09 | 0.747 | 0.511 | 0.671 | 0.736 | 0.571
4 | NCI-H2342 | 0.457 | 0.503 | 0.527 | 0.583 | 0.533 | 0.869 | 0.689 | 0.701 | 0.784 | 0.704 | 0.456 | 0.45 | 0.455 | 0.432 | 0.497 | 0.779 | 0.662 | 0.714 | 0.601 | 0.799
5 | LC-2-ad | 0.45 | 0.449 | 0.478 | 0.408 | 0.354 | 0.724 | 0.689 | 0.652 | 0.69 | 0.689 | 0.677 | 0.708 | 0.729 | 0.728 | 0.709 | 1.06 | 1.13 | 1.05 | 0.979 | 0.98
6 | CAL-12T | 0.32 | 0.279 | 0.323 | 0.241 | 0.241 | 0.77 | 0.711 | 0.882 | 0.65 | 0.629 | 0.7 | 0.711 | 0.751 | 0.725 | 0.648 | 0.393 | 0.224 | 0.428 | 0.449 | 0.518
7 | RERF-LC-KJ | 0.584 | 0.433 | 0.513 | 0.435 | 0.285 | 0.749 | 0.773 | 0.713 | 0.861 | 0.712 | 0.901 | 0.838 | 0.996 | 0.753 | 0.951 | 1.31 | 1.37 | 1.41 | 1.13 | 1.08
8 | NCI-H1650 | 0.419 | 0.349 | 0.336 | 0.327 | 0.407 | 0.709 | 0.466 | 0.509 | 0.469 | 0.478 | 0.941 | 0.705 | 0.811 | 0.751 | 0.804 | 0.212 | 0.213 | 0.194 | 0.19 | 0.216
9 | BEN | – | 0.689 | 0.718 | 0.479 | 0.471 | 0.544 | 0.579 | 0.505 | 0.636 | 0.555 | 1.33 | 0.935 | 1.16 | 1.04 | 0.943 | 0.53 | 0.323 | 0.425 | 0.354 | 0.265
10 | EMC-BAC-2 | 0.239 | 0.289 | 0.313 | 0.255 | 0.261 | 0.467 | 0.433 | 0.455 | 0.527 | 0.392 | 0.496 | 0.513 | 0.525 | 0.466 | 0.525 | 1.26 | 0.835 | 1.28 | 1.16 | 1.11
11 | LU99A | 0.253 | 0.267 | 0.265 | 0.275 | 0.27 | 0.532 | 0.512 | 0.423 | 0.494 | 0.476 | 0.286 | 0.29 | 0.265 | 0.24 | 0.222 | 0.234 | 0.264 | 0.293 | 0.243 | 0.248
12 | ABC-1 | 0.168 | 0.185 | 0.194 | 0.183 | 0.206 | 1.32 | 1.12 | 1.39 | 0.989 | 0.836 | 0.831 | 0.67 | 0.741 | 0.633 | 0.8 | 0.559 | – | 0.8 | 0.473 | 0.728
13 | NCI-H1793 | 0.504 | 0.637 | 0.234 | 0.26 | 0.326 | 0.825 | 0.792 | 0.815 | 0.642 | 0.679 | 1.09 | 0.948 | 0.876 | 0.979 | 0.751 | 0.231 | 0.168 | 0.206 | 0.162 | 0.244
14 | NCI-H2347 | 0.619 | 0.543 | 0.617 | 0.51 | 0.568 | 0.577 | 0.614 | 0.526 | 0.672 | 0.729 | 0.595 | 0.657 | 0.609 | 0.613 | 0.584 | 0.786 | 0.63 | 0.381 | 0.512 | 0.403
15 | NCI-H1993 | 0.653 | 0.577 | 0.597 | 0.674 | 0.649 | 0.797 | 0.776 | 0.727 | 0.856 | 0.649 | 0.867 | 0.932 | 0.561 | – | 1.47 | 0.899 | 0.681 | 0.987 | 0.896 | 0.827
16 | NCI-H322M | 0.511 | 0.445 | 0.479 | 0.44 | 0.469 | 0.991 | 0.86 | 0.957 | 1 | 1.09 | 0.806 | 0.783 | 0.766 | 0.675 | 0.728 | 1.06 | 0.794 | 0.866 | 0.761 | 0.712
17 | NCI-H838 | 0.292 | 0.246 | 0.291 | 0.25 | 0.259 | 0.8 | 0.685 | 0.685 | 0.708 | 0.61 | 0.896 | 0.542 | 0.832 | 0.789 | 0.716 | 0.264 | 0.258 | 0.285 | 0.341 | 0.272
18 | HARA | 0.122 | 0.108 | 0.111 | 0.0979 | 0.106 | 0.473 | 0.648 | 0.422 | 0.499 | 0.426 | 0.834 | 1.17 | 0.907 | 0.682 | 0.634 | 0.848 | 0.688 | 1.08 | 0.487 | 0.496
19 | NCI-H2087 | 0.299 | 0.212 | 0.295 | 0.229 | 0.195 | 0.435 | 0.657 | 0.611 | 0.884 | 0.675 | 0.476 | 0.493 | 0.784 | 0.508 | 0.584 | 0.151 | 0.164 | 0.16 | 0.187 | 0.183
20 | NCI-H1437 | 0.415 | 0.362 | 0.418 | 0.404 | 0.373 | 0.752 | 0.813 | 0.771 | 0.667 | 0.653 | 0.673 | 0.547 | 0.665 | 0.614 | 0.543 | 1.21 | 0.999 | 1.19 | 1.08 | 1.12
21 | NCI-H358 | 0.107 | 0.12 | 0.111 | 0.108 | 0.0983 | 0.74 | 0.617 | 0.66 | 0.629 | 0.564 | 0.817 | 0.434 | 0.724 | 0.558 | 0.523 | 0.277 | – | 0.553 | 0.478 | 0.38
22 | ChaGo-K-1 | 0.257 | 0.264 | 0.231 | 0.216 | 0.216 | 0.751 | 0.832 | 0.771 | 0.657 | 0.766 | 0.46 | 0.404 | 0.449 | 0.395 | 0.383 | 0.633 | 0.581 | 0.604 | 0.437 | 0.588
23 | NCI-H650 | 0.81 | 0.768 | 0.798 | 0.687 | 0.704 | 0.584 | 0.461 | 0.351 | 0.534 | 0.409 | 0.438 | 0.45 | 0.474 | 0.385 | 0.381 | 0.753 | 0.791 | 0.845 | 0.786 | 0.767
24 | COR-L23 | 0.191 | 0.185 | 0.194 | 0.168 | 0.145 | 0.511 | 0.46 | 0.417 | 0.374 | 0.375 | 0.392 | 0.323 | 0.355 | 0.315 | 0.325 | 0.933 | 0.612 | 0.587 | 0.773 | 0.728
25 | COR-L 105 | 0.665 | 0.37 | 0.312 | 0.335 | 0.328 | 0.658 | 1.13 | 0.845 | 0.911 | 0.768 | 0.617 | 0.732 | 0.592 | 0.662 | 0.587 | 0.7 | 0.699 | 0.761 | 0.812 | 0.738
26 | LK-2 | 0.158 | 0.197 | 0.178 | 0.198 | 0.176 | 0.384 | 0.409 | 0.302 | 0.315 | 0.322 | 0.873 | 0.659 | 0.877 | 0.773 | 0.694 | 0.219 | 0.183 | 0.214 | 0.211 | 0.166
27 | 201T | 0.873 | 0.837 | 0.933 | 0.98 | 0.967 | 0.969 | 0.975 | 0.887 | 1.05 | 1.02 | 0.866 | 0.61 | 0.861 | 0.809 | 0.824 | 1.06 | 1.05 | 1.11 | 1.09 | 1.07
